Key:
[1] = system: MCF-7 cells; test: Annexin V/PI flow cytometry, MCF-7; format: cell-based, human; conditions: IC50 concentration; 24 h
Text: (§1) In an embodiment, to understand the mechanisms leading to cell death, cells were studied for the induction of apoptosis by flow cytometry. […] Externalization of phosphatidylserine occurs during the early apoptotic events. While annexin V binds to phosphatidylserine, PI stains only cells that have lost their membrane integrity, an experimental procedure which allows the discrimination between viable cells, early apoptotic cells, late apoptotic/necrotic cells or necrotic cells.
(§2) In an embodiment, MCF-7, Hs578t and 786-O cells were seeded in 6-well culture plates and allowed to adhere over 18-20 hours in a complete DMEM (for MCF-7 and Hs578t cells) and complete RPMI (for 786-O cells) medium to detect apoptosis via flow cytometry analysis. […] Triplicates were performed in each experiment. Floating and adherent cells were collected and combined by centrifugation. Elimination of the supernatant was followed by addition of 1 mL of Binding Buffer. 8 μL FITC annexin V (556419, BD Pharmingen) and 30 μl of PI (50 μg/mL, P1304MP, Invitrogen) were added to the cell pellet. Samples were incubated in the dark for 15 min at room temperature. A further 200 μL of Binding Buffer was added to each sample. PI signal was measured using FACS LSRII flow cytometer (BD Biosciences®) with 488 nm excitation laser. […] The percentage of cells in each phase was analysed using the FlowJo 7.6 (Tree Star®) software. […]

[2] = system: CAM (chicken chorioallantoic membrane) blood vessels; test: CAM assay, angiogenesis; format: in vivo; conditions: 2× the IC50 value; after 4 days of treatment
Description: In an embodiment, the in vivo capacity of the compounds to inhibit angiogenesis was analysed using the CAM model. To assess the effect on angiogenesis, sterilized 5-mm diameter filter disks were impregnated in culture medium with fixed concentration (2× the IC50 value) of the chromenes MC408 and MC421 or 0.5% DMSO (control group) and were placed onto the vascular area of CAM.
In an embodiment, CAM assay was performed. Fertilized chicken eggs were incubated at 37° C. and at day 3 of development, a window was opened into the eggshell after puncturing the air chamber. The window was sealed with BTK tape and returned to the incubator. On day 9 of development, Hs578t cells (2×10^6 cells) or 786-O cells (3.5×10^6 cells) with Matrigel (10 μL) were placed on CAM, allowing tumor formation and the eggs were tapped and returned to the incubator. At day 14 of development, the tumors were photographed. The treated groups received 20 μL of 2×IC50 concentration of MC408 or MC421 in complete DMEM (for Hs578t cells) or complete RPMI (for 786-O cells) media and the controls received 20 μL of 0.5% DMSO in complete DMEM or RPMI; these were added over the formed tumor. After 72 hours of treatment (day 17 of development), the tumors were photographed again in ovo. Sacrifice of chicken embryos was performed at −80° C. for 10 minutes and the CAM alone was fixed with paraformaldehyde at 4% before being photographed again ex ovo.

[3] = system: 786-O cells; test: Annexin V/PI flow cytometry, 786-O; format: cell-based; conditions: IC50 concentration; 24 h
Text: as §1, §2

[4] = system: 786-O cells; test: BrdU proliferation assay, 786-O; format: cell-based; conditions: 48 hours; IC50 and ½IC50
Description: In an embodiment, the effect of preferred chromene-based compounds on cell proliferation was evaluated. […] Results are presented as mean±SD at least three independent experiments. *p<0.05, **p<0.01, ***p<0.0005, ****p<0.0001 compared to control (0.5% DMSO). The significance of the difference between different groups was determined with Student t test. […] Exceptions are observed for compounds MC409, MC410 and MC368.
In an embodiment, proliferation assay was performed. 786-O cells were plated in 96-well plates at a density of 7000 cells/[…], and allowed to incubate overnight at 37° C. in a 5% CO2 humidified atmosphere. […] After incubation, cells were labelled by addition of 10 μl/well BrdU labelling solution (final concentration: 40 μM BrdU). The cells were then re-incubated for 16 h to allow BrdU to incorporate into the proliferating cell DNA, replacing thymidine. […] The immune complexes were detected by the addition of substrate solution (100 μl/well) and the plate was incubated at room temperature until color development was satisfactory for photometric detection (5-10 min). […] The reaction product was quantified by measuring absorbance at 450 nm (reference wavelength: 690 nm) in microplate reader (Tecan Infinite M200). […] The results of at least three independent experiments (in quadruplicate) were evaluated using GraphPad Prism 5 software.

SMILES	induction of cell death by apoptosis (annexin V/PI) [1]	formation of novel blood vessels [2]	pre-existing blood vessels [2]	induction of cell death by apoptosis (annexin V/PI) [3]	effect on cell proliferation (BrdU incorporation) [4]
COc1cccc2c1Oc1nc(-c3ccc(Br)cc3)[nH]c1C2 [MC408, 2-(4-bromophenyl)-5-methoxy-3,9-dihydrochromeno[2,3-d]imidazoles]	inducing cell death by apoptosis (early apoptosis)	decreased	disruption	inducing cell death by apoptosis (early apoptosis)	–
COc1cccc2c1Oc1nc(-c3ccc(F)cc3)[nH]c1C2 [MC409, 2-(4-fluorophenyl)-5-methoxy-3,9-dihydrochromeno[2,3-d]imidazoles]	–	–	–	–	Exceptions
COc1cccc2c1Oc1nc(-c3cc(F)cc(F)c3O)[nH]c1C2 [MC410, 2,4-difluoro-6-(5-methoxy-3,9-dihydrochromeno[2,3-d]imidazol-2-yl)phenol]	–	–	–	–	Exceptions
COc1cccc2c1Oc1nc(-c3ccc(Br)cc3)[nH]c1C2C1c2cccc(OC)c2Oc2nc(-c3ccc(Br)cc3)[nH]c21 (stereo not shown) [MC421, 2,2′-bis(4-bromophenyl)-5,5′-dimethoxy-1,1,9,9′-tetrahydro-9,9′-bichromeno[2,3-]imidazoles]	inducing cell death by apoptosis (early apoptosis)	decreased	disruption	inducing cell death by apoptosis (early apoptosis)	–
